Type in all cases: in vivo
One assay concerns Matricaria inodora. The assay is described as follows: greenhouse test, post-emergence treatment, MATIN. As to conditions: 2000 g/ha. The source says: (§1) The culture containers used were plastic flowerpots containing loamy sand with approximately 3.0% of humus as the substrate. The seeds of the test plants were sown separately for each species.
(§2) For the post-emergence treatment, the test plants were first grown to a height of 3 to 15 cm, depending on the plant habit, and only then treated with the active ingredients which had been suspended or emulsified in water. For this purpose, the test plants were either sown directly and grown in the same containers, or they were first grown separately as seedlings and transplanted into the test containers a few days prior to treatment.
(§3) Depending on the species, the plants were kept at 10-25° C. or 20-35° C., respectively.
(§4) The test period extended over 2 to 4 weeks. During this time, the plants were tended, and their response to the individual treatments was evaluated.
(§5) Evaluation was carried out using a scale from 0 to 100. 100 means no emergence of the plants, or complete destruction of at least the aerial moieties, and 0 means no damage, or normal course of growth. A good herbicidal activity is given at values of at least 70 and a very good herbicidal activity is given at values of at least 85.
(§6) The plants used in the greenhouse experiments were of the following species: […]

The next assay has as its system Amaranthus retroflexus. The assay is described as follows: greenhouse test, post-emergence treatment, AMARE. The gist of the method:
(§7)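 Herbicidal effect is rated 0–100, where 100 denotes total destruction of aerial parts and 0 denotes unaffected growth. Treatment occurs once plants reach 3–15 cm in humus-containing loamy sand, with compound applied in water; the trial runs 2–4 weeks at 10–25 °C or 20–35 °C.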

For a further assay, the system named is Alopecurus myosuroides. The assay is described as follows: greenhouse test, post-emergence treatment, ALOMY. As to conditions: post-emergence. The gist of the method:
as §7

Another assay has as its system Abutilon theophrasti. The assay is described as follows: greenhouse test, post-emergence treatment, ABUTH.
Excerpt: as §1, §2, §3, §4, §5, §6

In assay [1] the test system is Apera spica-venti. The assay is described as follows: greenhouse test, pre-emergence treatment, APESV. The gist of the method:
(§8)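 Herbicidal effect rated on a 0-100 scale, where 0 is normal growth and 100 is no emergence or destroyed aerial parts, 2 to 4 weeks after soil application at sowing.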

The test system of a further assay is Setaria viridis. Kind of assay: greenhouse test, post-emergence treatment, SETVI. A digest of the protocol: as §7
In assay [2] the test system is Echinocloa crus-galli. The assay is described as follows: greenhouse test, pre-emergence treatment, ECHCG. The gist of the method: as §8
For assay [3], the system named is Echinocloa crus-galli. Kind of assay: greenhouse test, post-emergence treatment, ECHCG. As to conditions: post-emergence. The gist of the method:
as §7

The test system of the next assay is Poa annua. The assay is described as follows: greenhouse test, pre-emergence treatment, POAAN.
Excerpt: as §1
For the pre-emergence treatment, the active ingredients, which had been suspended or emulsified in water, were applied directly after sowing by means of finely distributing nozzles. The containers were irrigated gently to promote germination and growth and subsequently covered with transparent plastic hoods until the plants had rooted. This cover caused uniform germination of the test plants, unless this had been impaired by the active ingredients.
as §3, §4, §5, §6

The subject of a further assay is Avena fatua. Kind of assay: greenhouse test, post-emergence treatment, AVEFA. As to conditions: 2000 g/ha. A digest of the protocol:
as §7

Assay [4] has as its system Apera spica-venti. Kind of assay: greenhouse test, post-emergence treatment, APESV. As to conditions: 1000 g/ha.
Excerpt: as §1, §2, §3, §4, §5, §6

For `Clc1ccccc1-c1cnc(C2CC2)nc1-c1cccs1` [Ex. 29], the herbicidal activity result with Matricaria inodora and in the assay with Amaranthus retroflexus (2000 g/ha) was “very good (a very good herbicidal activity is given at values of at least 85)” in each case.

As for `Fc1cccc(Cl)c1-c1cnc(C2CC2)nc1-c1ccoc1` [Ex. 41], the herbicidal activity entry in the assay on Alopecurus myosuroides (2000 g/ha) and in the assay with Matricaria inodora was “very good (a very good herbicidal activity is given at values of at least 85)” throughout.

With `CC(C)(O)c1nc(C2CC2)ncc1-c1ccccc1Cl` [Ex. 86], the herbicidal activity entry in the assay on Abutilon theophrasti (1000 g/ha) is recorded as “good (A good herbicidal activity is given at values of at least 70)”; with Apera spica-venti [1] (1000 g/ha) it was “good (A good herbicidal activity is given at values of at least 70)”; in the assay on Setaria viridis (1000 g/ha), “very good (a very good herbicidal activity is given at values of at least 85)”; in the assay on Amaranthus retroflexus (1000 g/ha) it was “good (A good herbicidal activity is given at values of at least 70)”.

Consider `CC(=O)Cc1nc(C2CC2)ncc1-c1ccccc1Cl` [Ex. 146], for which the herbicidal activity entry in the assay on Abutilon theophrasti (2000 g/ha), in the assay on Apera spica-venti [1] (2000 g/ha), with Echinocloa crus-galli [2] (2000 g/ha), in the assay on Setaria viridis (2000 g/ha) and in the assay on Echinocloa crus-galli [3] (2000 g/ha) was “very good (a very good herbicidal activity is given at values of at least 85)” throughout.

In the case of `C=Cc1nc(C2CC2)ncc1-c1ccccc1Cl` [Ex. 211], the herbicidal activity entry is “good (A good herbicidal activity is given at values of at least 70)” in the assay on Alopecurus myosuroides (2000 g/ha), “good (A good herbicidal activity is given at values of at least 70)” in the assay on Apera spica-venti [1] (2000 g/ha), “good (A good herbicidal activity is given at values of at least 70)” with Poa annua (2000 g/ha) and “very good (a very good herbicidal activity is given at values of at least 85)” with Echinocloa crus-galli [3] (2000 g/ha).

Take `CC1OC1c1nc(C2CC2)ncc1-c1ccccc1Br` (centres unmarked) [Ex. 213]: the herbicidal activity entry in the assay with Avena fatua is given as “very good (a very good herbicidal activity is given at values of at least 85)”; in the assay on Alopecurus myosuroides (2000 g/ha) it was “very good (a very good herbicidal activity is given at values of at least 85)”; with Apera spica-venti [1] (2000 g/ha), “good (A good herbicidal activity is given at values of at least 70)”; with Echinocloa crus-galli [2] (2000 g/ha), “good (A good herbicidal activity is given at values of at least 70)”; in the assay on Poa annua (2000 g/ha) it was “good (A good herbicidal activity is given at values of at least 70)”; in the assay with Echinocloa crus-galli [3] (2000 g/ha) it was “very good (a very good herbicidal activity is given at values of at least 85)”.

On to `COC(=O)C(OC(C)=O)c1nc(C2CC2)ncc1-c1ccccc1Cl` (centres unmarked) [Ex. 222], for which the herbicidal activity result in the assay on Abutilon theophrasti (2000 g/ha), in the assay with Matricaria inodora and in the assay on Amaranthus retroflexus (2000 g/ha) was “very good (a very good herbicidal activity is given at values of at least 85)” in each case.

As for `CC(C)=CC(O)Cc1nc(C2CC2)ncc1-c1ccccc1Cl` (centres unmarked) [Ex. 223], the herbicidal activity result in the assay on Abutilon theophrasti (2000 g/ha), in the assay on Apera spica-venti [1] (2000 g/ha), in the assay on Echinocloa crus-galli [2] (2000 g/ha), with Poa annua (2000 g/ha), in the assay with Amaranthus retroflexus (2000 g/ha) and in the assay on Echinocloa crus-galli [3] (2000 g/ha) was “very good (a very good herbicidal activity is given at values of at least 85)” throughout.

`Clc1ccccc1-c1cnc(C2CC2)nc1-c1ccncn1` [Ex. 225]: the herbicidal activity entry in the assay on Avena fatua, with Alopecurus myosuroides (2000 g/ha), in the assay with Apera spica-venti [1] (2000 g/ha), in the assay on Echinocloa crus-galli [2] (2000 g/ha), with Poa annua (2000 g/ha) and in the assay with Echinocloa crus-galli [3] (2000 g/ha) was “very good (a very good herbicidal activity is given at values of at least 85)” throughout.

`COC(=O)C(O)(CO)c1nc(C2CC2)ncc1-c1ccccc1Cl` (centres unmarked) [Ex. 230]: in the assay on Matricaria inodora, the herbicidal activity entry is recorded as “good (A good herbicidal activity is given at values of at least 70)”.

As for `OC(Cc1nc(C2CC2)ncc1-c1ccccc1Cl)c1c(Cl)ccc(Cl)c1Cl` (centres unmarked) [Ex. 231], the herbicidal activity result with Matricaria inodora is “good (A good herbicidal activity is given at values of at least 70)”; in the assay on Echinocloa crus-galli [3] (2000 g/ha), “very good (a very good herbicidal activity is given at values of at least 85)”.

Regarding `OC(c1nc(C2CC2)ncc1-c1ccccc1Cl)C(O)c1c(Cl)ccc(Cl)c1Cl` (centres unmarked) [Ex. 241], the herbicidal activity result is listed as “very good (a very good herbicidal activity is given at values of at least 85)” in the assay on Poa annua (2000 g/ha) and “good (A good herbicidal activity is given at values of at least 70)” in the assay with Echinocloa crus-galli [3] (2000 g/ha).

In the case of `CSc1ncc(-c2nc(C3CC3)ncc2-c2ccccc2Cl)cn1` [Ex. 248], the herbicidal activity entry in the assay with Alopecurus myosuroides (2000 g/ha), in the assay with Apera spica-venti [1] (2000 g/ha), in the assay on Echinocloa crus-galli [2] (2000 g/ha), with Setaria viridis (2000 g/ha), with Poa annua (2000 g/ha) and with Echinocloa crus-galli [3] (2000 g/ha) was “very good (a very good herbicidal activity is given at values of at least 85)” in each case.

As for `Clc1ccc(Cl)c(/C=C/c2nc(C3CC3)ncc2-c2ccccc2Cl)n1` [Ex. 257], in the assay on Matricaria inodora, the herbicidal activity result is “good (A good herbicidal activity is given at values of at least 70)”.

Consider `Brc1cc(-c2nc(C3CC3)ncc2-c2ccccc2Br)co1` [Ex. 268], for which the herbicidal activity entry in the assay with Echinocloa crus-galli [2] (1000 g/ha), with Poa annua (1000 g/ha) and in the assay on Echinocloa crus-galli [3] (1000 g/ha) was “very good (a very good herbicidal activity is given at values of at least 85)” each time.

As to `Cc1nc(C)c(-c2nc(C3CC3)ncc2-c2cc(C(F)(F)F)ccc2Cl)o1` [Ex. 278], the herbicidal activity result in the assay with Abutilon theophrasti (1000 g/ha), in the assay on Apera spica-venti [1] (1000 g/ha), in the assay on Echinocloa crus-galli [2] (1000 g/ha), with Amaranthus retroflexus (1000 g/ha) and in the assay on Echinocloa crus-galli [3] (1000 g/ha) was “very good (a very good herbicidal activity is given at values of at least 85)” in each case.

For `Cc1nc(C)c(-c2nc(C3CC3)ncc2-c2c(F)cccc2Cl)o1` [Ex. 309], the herbicidal activity entry with Alopecurus myosuroides (1000 g/ha), in the assay on Apera spica-venti [4], with Amaranthus retroflexus (1000 g/ha) and in the assay on Echinocloa crus-galli [3] (1000 g/ha) was “very good (a very good herbicidal activity is given at values of at least 85)” each time.
